Results reported in ChEMBL document CHEMBL2021861, “Structure-activity relationship study of opiorphin, a human dual ectopeptidase inhibitor with antinociceptive properties” (J Med Chem, 2012).
pIC50: −log10 of the molar value. Numbered stars: 1 amine (or outer) side, 2 acyl side, 3 side chain; on linkers, the order of the positions; unused ones are H or OH. Square brackets hold non-standard residues; d marks the D form. Peptide text beside a SMILES is read from it. β3hPhg = O=C(C[C@@H](N[*:1])c1ccccc1)[*:2]; Phg = N[C@H](C(=O)O)c1ccccc1

What was measured:
[1] = biological target: Neprilysin (Homo sapiens, UniProt P08473); experiment: Inhibition of human recombinant NEP ectopeptidase activity using Abz-dRGL-(EDDnp) as substrate preincubated for 10 mins with substrate by fluorimetric analysis
[2] = biological target: Aminopeptidase N (Homo sapiens, UniProt P15144); experiment: Inhibition of human recombinant AP-N ectopeptidase activity using alanine-MCA as substrate preincubated for 10 mins with substrate by fluorimetric analysis
Chain of Aminopeptidase N (P15144 whole entry): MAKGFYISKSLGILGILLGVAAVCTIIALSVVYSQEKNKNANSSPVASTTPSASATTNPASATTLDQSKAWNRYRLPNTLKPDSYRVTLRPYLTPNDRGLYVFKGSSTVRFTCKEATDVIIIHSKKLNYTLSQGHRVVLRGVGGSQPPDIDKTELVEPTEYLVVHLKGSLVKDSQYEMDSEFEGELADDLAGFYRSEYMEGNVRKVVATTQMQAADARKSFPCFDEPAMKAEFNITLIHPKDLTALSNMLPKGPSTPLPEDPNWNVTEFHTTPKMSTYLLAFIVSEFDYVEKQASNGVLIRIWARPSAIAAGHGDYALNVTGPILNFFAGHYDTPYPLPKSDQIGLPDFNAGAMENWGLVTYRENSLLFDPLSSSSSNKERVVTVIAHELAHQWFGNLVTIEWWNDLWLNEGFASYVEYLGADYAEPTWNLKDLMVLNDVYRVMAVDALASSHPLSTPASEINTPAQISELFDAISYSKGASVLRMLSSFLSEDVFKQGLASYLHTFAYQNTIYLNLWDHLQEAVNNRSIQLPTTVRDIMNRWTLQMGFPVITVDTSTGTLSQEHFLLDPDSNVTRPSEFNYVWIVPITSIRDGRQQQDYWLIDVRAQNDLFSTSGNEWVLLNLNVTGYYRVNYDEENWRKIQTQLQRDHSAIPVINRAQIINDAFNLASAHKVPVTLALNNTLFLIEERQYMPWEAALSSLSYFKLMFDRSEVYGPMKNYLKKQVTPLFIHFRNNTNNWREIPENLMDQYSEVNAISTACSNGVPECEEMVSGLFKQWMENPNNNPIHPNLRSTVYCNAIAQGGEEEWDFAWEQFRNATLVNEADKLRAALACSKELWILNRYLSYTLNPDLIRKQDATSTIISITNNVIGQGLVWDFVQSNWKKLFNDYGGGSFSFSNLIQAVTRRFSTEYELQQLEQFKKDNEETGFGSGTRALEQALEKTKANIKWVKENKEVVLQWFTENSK

Chain of Neprilysin (P08473 whole entry): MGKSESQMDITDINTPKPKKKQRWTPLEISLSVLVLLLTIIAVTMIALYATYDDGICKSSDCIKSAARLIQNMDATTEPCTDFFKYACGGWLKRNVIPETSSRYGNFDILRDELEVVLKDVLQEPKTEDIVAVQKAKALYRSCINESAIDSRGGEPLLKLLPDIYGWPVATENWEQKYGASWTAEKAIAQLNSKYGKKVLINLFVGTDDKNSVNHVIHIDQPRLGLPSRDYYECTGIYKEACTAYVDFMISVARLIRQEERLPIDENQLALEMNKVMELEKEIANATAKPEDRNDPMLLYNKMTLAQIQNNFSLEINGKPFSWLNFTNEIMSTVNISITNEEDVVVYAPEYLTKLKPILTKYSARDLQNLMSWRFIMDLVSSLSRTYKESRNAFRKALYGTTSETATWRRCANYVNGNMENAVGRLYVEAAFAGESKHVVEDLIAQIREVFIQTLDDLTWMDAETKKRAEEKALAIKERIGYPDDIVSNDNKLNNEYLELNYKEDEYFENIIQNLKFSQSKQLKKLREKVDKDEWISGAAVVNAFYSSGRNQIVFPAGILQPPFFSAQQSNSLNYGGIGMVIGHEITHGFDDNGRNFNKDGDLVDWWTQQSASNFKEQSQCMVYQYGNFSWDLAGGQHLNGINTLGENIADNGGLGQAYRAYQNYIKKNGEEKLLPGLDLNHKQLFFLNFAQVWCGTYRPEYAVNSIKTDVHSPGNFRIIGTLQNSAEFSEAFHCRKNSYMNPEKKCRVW

| Compound | pIC50 [1] | pIC50 [2] |
| --- | --- | --- |
| N=C(N)NCCC[C@H](NC(=O)[C@H](CO)NC(=O)[C@@H](NC(=O)[C@H](CCCNC(=N)N)NC(=O)[C@@H](N)CCC(N)=O)c1ccccc1)C(=O)O (H-QR[Phg]SR-OH) | < 4.00 |  |
| NC(=O)CC[C@H](N)C(=O)N[C@@H](CCCN=C(N)N)C(=O)N[C@H](CC(=O)N[C@@H](CO)C(=O)N[C@@H](CCCN=C(N)N)C(=O)O)c1ccccc1 (H-QR[β3hPhg]SR-OH) | < 4.00 | < 4.15 |
| H-ARFSR-OH | < 4.15 |  |
| H-QRASR-OH | < 4.00 | < 4.15 |
| H-QRFSA-OH |  | < 4.15 |
